Assay results taken from ChEMBL document CHEMBL5316366, “Immunomodulatory Effects of New Phenanthrene Derivatives from Dendrobium crumenatum” (J Nat Prod, 2023).
Calls of active or inactive are those of the source. The calls are words filed in the database; no cut-off is given here.

What was measured:
[1] = system: PBMC; assay: Immunomodulatory activity in PMA/ionomycin-induced human PBMC assessed as reduction in frequency of IL-2 expressing CD3+ T cells at 1 to 20 uM incubated for 4 hrs by flow cytometry; format: functional, cell-based; settings: dose 1-20 µM
[2] = system: PBMC; assay: Inhibition of Ca2+ influx in human PBMC derived from multiple sclerosis patient assessed as decrease in Ca2+ influx rate in CD8+ T cells at 1 uM incubated for 4 hrs by Fluo-4 AM staining based flow cytometry method; format: functional, cell-based
[3] = system: PBMC; assay: Inhibition of Ca2+ influx in human PBMC derived from multiple sclerosis patient assessed as decrease in Ca2+ influx rate in CD4+ T cells at 1 uM incubated for 4 hrs by Fluo-4 AM staining based flow cytometry method; format: functional, cell-based
[4] = system: PBMC; assay: Inhibition of Ca2+ influx in human PBMC derived from multiple sclerosis patient assessed as reduction in Ca2+ influx rate in CD4+ T cells at 10 uM incubated for 4 hrs by Fluo-4 AM staining based flow cytometry method; format: functional, cell-based
[5] = system: PBMC; assay: Immunomodulatory activity in PMA/ionomycin-induced human PBMC assessed as reduction in frequency of TNF-alpha expressing CD14+ inflammatory monocytes at 1 to 20 uM incubated for 4 hrs by flow cytomtery; format: functional, cell-based; settings: dose 1-20 µM
[6] = system: PBMC; assay: Inhibition of Ca2+ influx in human PBMC derived from multiple sclerosis patient assessed as reduction in Ca2+ influx rate in CD8+ T cells at 10 uM incubated for 4 hrs by Fluo-4 AM staining based flow cytometry method; format: functional, cell-based
[7] = system: PBMC; assay: Immunomodulatory activity in human PBMC derived from multiple sclerosis patient assessed as reduction in IFN-gamma expressing CD3+ T cells at 10 uM incubated for 4 hrs by flow cytometry; format: functional, cell-based
[8] = system: PBMC; assay: Immunomodulatory activity in PMA/ionomycin-induced human PBMC assessed as reduction in frequency of IFN-gamma expressing CD3+ activated T cells at 1 to 20 uM incubated for 4 hrs by flow cytometry; format: functional, cell-based; settings: dose 1-20 µM
[9] = system: PBMC; assay: Immunomodulatory activity in human PBMC derived from multiple sclerosis patient assessed as reduction in TNF-alpha expressing CD3+ T cells at 10 uM incubated for 4 hrs by flow cytometry; format: functional, cell-based
[10] = system: PBMC; assay: Immunomodulatory activity in human PBMC derived from multiple sclerosis patient assessed as reduction in IL-2 expressing CD3+ T cells at 10 uM incubated for 4 hrs by flow cytometry; format: functional, cell-based
[11] = system: PBMC; assay: Immunomodulatory activity in multiple sclerosis patient derived PBMC derived from multiple sclerosis patient assessed as reduction in frequency of reactive ICOS+ CD4+ T cells by CyTOF assay; format: functional, cell-based; settings: Homo sapiens
[12] = system: PBMC; assay: Cytotoxicity against human PBMC assessed as late apoptotic cells at 1 to 20 uM incubated for 4 hrs by Annexin V-FITC/7-AAD staining based flow cytometric analysis; format: toxicity, cell-based; settings: dose 1-20 µM
[13] = system: PBMC; assay: Cytotoxicity against human PBMC assessed as early apoptotic cells at 1 to 20 uM incubated for 4 hrs by Annexin V-FITC/7-AAD staining based flow cytometric analysis; format: toxicity, cell-based; settings: dose 1-20 µM
[14] = system: PBMC; assay: Immunomodulatory activity in PMA/ionomycin-induced human PBMC derived from multiple sclerosis patient assessed as decrease in frequency of CD161+ CD3+T-bet+CD4-CD8-CD14- double negative T cells by CyTOF assay; format: functional, cell-based
[15] = system: PBMC; assay: Immunomodulatory activity in multiple sclerosis patient derived PBMC derived from multiple sclerosis patient assessed as increase in frequency of CTLA4+CRTH2+ CD8+ T cells by CyTOF assay; format: functional, cell-based; settings: Homo sapiens
[16] = system: PBMC; assay: Immunomodulatory activity in PMA/ionomycin-induced human PBMC derived from multiple sclerosis patient assessed as reduction in frequency of reactive ICOS+ CD4+ T cells by CyTOF assay; format: functional, cell-based
[17] = system: PBMC; assay: Immunomodulatory activity in PMA/ionomycin-induced human PBMC derived from multiple sclerosis patient assessed as increase in frequency of CTLA4+CRTH2+ CD8+ T cells by CyTOF assay; format: functional, cell-based

Compound	Activity [1]	inhibition [4]	inhibition [6]	Activity [7]	Activity [9]	Activity [10]	Activity [12]	Activity [13]	further results
COC1=CC(=O)c2c(ccc3c(OC)c(O)ccc23)C1=O	Active								
Cc1cccc(F)c1C(=O)Nc1cnc(-c2cc3c(cc2Cl)OC(F)(F)O3)cn1									inhibition [2]: Active; inhibition [3]: Active
COC1=CC(=O)c2c(ccc3c(OC)c(O)ccc23)[C@@]12Oc1cc(OC)cc3ccc4c(c13)C2=CC(=O)C4=O	Active	inactive	inactive	Active	Active	Active	Non-Toxic	Non-Toxic	Activity [5]: Active; Activity [8]: Active; Activity [11]: Active; Activity [14]: Active; Activity [15]: Active; Activity [16]: Active; Activity [17]: Active
COc1cc2c(c(OC)c1O)-c1ccc(O)c(O)c1CC2	Active	inactive	inactive	Active	Active	Active	Non-Toxic	Non-Toxic	
COc1cc2ccc3c(OC)c(O)ccc3c2c(OC)c1O	Active								
